# Measured values reported in US9376499B2, “PAR-1 activation by metalloproteinase-1 (MMP-1)” (Tufts Medical Center, Inc., priority 2009, dated 2016).
# What was measured:
# platelets [1] = assay: Platelet thrombus formation on collagen surface under arterial flow, CTI-anticoagulated whole blood; assay type: cell-based, human; settings: CTI 30 μg/mL, hirudin 0.0013 U/mL, aspirin 1 mM
# Description: Collagen-activated platelets also provide a pro-coagulant surface and produce tissue factor, which aids in the production of thrombin (Giesen at al., 1999; Mackman, 2004; Schwertz et al., 2006).
# Whole blood was anti-coagulated with CTI (30 μg/mL) to block the contact pathway, otherwise the experiments were conducted identically as in FIG. 6A. Hirudin was used as indicated at 0.0013 UImL.
# p38 MAPK = assay: Collagen-induced phospho-p38 MAPK in platelets (western blot); assay type: cell-based, human; settings: 5 or 20 μg/ml collagen or 10 nM MMP-1; ARC 0.5 μM, aspirin 1 mM
# Description: The effect of pharmacologic blockage of metalloproteases or PAR1 on collagen-dependent platelet aggregation was then tested (see FIG. 5). […] Platelets were pre-incubated for 5 min with the thrombin inhibitors PPACK (200 μM) or hirudin (1 U/ml), the Zn-chelator 1,10-phenanthroline (1,10-PA; 100 μM), the broad spectrum metalloprotease inhibitor MMP-200 (200 nM), the MMP-1 inhibitor FN-439 (3 μM), the PAR1 ligand binding site inhibitor RWJ-56110 (1 μM), the PAR1 blocking antibody (75 μg/ml), the PAR1 pepducin lipopeptides P1pal-12 (3 μM) or P1pal-7 (3 μM), the PAR4 pepducin lipopeptide P4pal-10 (3 μM), MMP-8 inhibitor (25 nM) or MMP9/13 inhibitor (10 nM).
# In FIG. 5B, platelets were treated as in FIG. 5A and then lysed with Laemmli sample buffer 5 min after addition of collagen, p38 MAPK activity was then assessed by western blot with a p38 MAPK phospho-Ab and total p38 loading was determined using a p38 MAPK antibody.
# platelets [2] = assay: Platelet thrombus formation on collagen surface under arterial flow, heparin-anticoagulated whole blood; assay type: cell-based, human; settings: heparin 10 U/mL; shear rate 1,000 s-1; FN-439 3 μM, RWJ-56110 1 μM, pepducins 3 μM, aspirin 1 mM
# Description: Following incubation with inhibitors, the blood was perfused over a glass slide coated with fibrillar collagen type I.
# A flow chamber (Glycotech) with Type-I fibrillar collagen-coated glass slides was mounted on the stage of an IMT-2 inverted microscope (Olympus) equipped with Retiga 1300 digital camera (QImaging) and 40× objective. One of the flow chamber inlets was connected to a syringe pump (Harvard Apparatus) calibrated to create a shear rate of 1,000^s-1. The whole blood pretreated with the various pharmacologic inhibitors was then perfused over the collagen-coated glass slide. After 2-15 min of perfusion, blood was removed from the flow chamber by gentle displacement with PIPES buffer and images of 8-10 fields were acquired using OpenLab software (Improvision). Acquired images were further analyzed using NIH Image 1.63 software. Images were first sharpened and the edges of separate platelets and platelet aggregates were determined. Following the adjustment of threshold, images were converted into the binary format, and the particle analysis function was activated to highlight the regions covered by platelets with the sensitivity set to one single adherent thrombocyte. For the conversion of pixels into square micrometers, a calibration curve was built using 2.5, 6, 20, 25, and 45 μm polystyrene beads (Polyscience) using acquisition conditions identical to the experimental. The mean area of formed thrombus was determined at 7 min. Area measurements in FIG. 6B represent the mean±s.e. of three separate experiments from five different blood donors.
# Rho-GTP = assay: Collagen-induced Rho-GTP activity in platelets (western blot); assay type: cell-based, human; settings: 5 or 20 μg/ml collagen or 10 nM MMP-1; ARC 0.5 μM, aspirin 1 mM
# Description: In FIG. 5C, platelets were treated as in FIG. 5B and then Rho GTP activity was assessed by western blot.
# Representative blots are shown at the bottom of FIGS. 5B-D. Data are the mean±s.d. of three experiments. P*<0.01, #<0.05.
# PAR1 [3] = assay: Release of PAR1 N-terminal cleavage peptide from gel-filtered platelets (dot blot, IIaR-A antibody); assay type: cell-based, human
# Excerpt: To further understand how collagen is able to activate significant amounts of endogenous MMP-1 collagenase activity on the surface of platelets, experiments were devised to determine if PAR-1 is cleaved in either an autocrine or paracrine manner following exposure to collagen. Using a monoclonal antibody raised against the amino-terminal thrombin-cleavage peptide region of PAR1, residues 32-46 (Loew et al., 2000), the relative abilities of thrombin, MMP-1 and collagen to cause cleavage of platelet PAR1 was assessed. Gel filtered platelets were treated for 10 min with thrombin (3 nM), MMP-1 (3 nM), collagen (5 μg/ml), in the presence or absence (PBS buffer) of 0.00013 U hirudin or 5 μM FN-439 at 37° C. Supernatants were concentrated 20-fold and applied to nitrocellulose membranes, then probed with the IIaR-A monoclonal antibody. The PAR1 N-terminal thrombin deavage peptide (A26-R41) and PAR1 flexible linker peptide (N-acetyl-T67-L84 -C) (Kuliopulos et al., 1999) served as positive and negative controls (100 ng), respectively.
# These platelets were then stimulated with collagen (5 μg/ml) for 10 min. at 37° C. Supernatants were concentrated 20-fold and applied to nitrocellulose membranes, then probed with the IIaR-A monoclonal antibody. […] FN-439, or an MMP1-blocking antibody (20 μg/ml) but not by thrombin inhibitor, hirudin (see FIG. 1E, FIG. 1G).
# PAR1 [4] = target: T1, PAR1 (Homo sapiens, UniProt P25116); assay: Platelet shape change (decrease in light transmittance); assay type: cell-based; settings: 1 μM RWJ-56110
# T1 construct: able to cleave PAR1 on the surface of human platelets; endogenous in cells; host or cells: gel-filtered or washed human platelets
# T1 sequence (P25116 22-425): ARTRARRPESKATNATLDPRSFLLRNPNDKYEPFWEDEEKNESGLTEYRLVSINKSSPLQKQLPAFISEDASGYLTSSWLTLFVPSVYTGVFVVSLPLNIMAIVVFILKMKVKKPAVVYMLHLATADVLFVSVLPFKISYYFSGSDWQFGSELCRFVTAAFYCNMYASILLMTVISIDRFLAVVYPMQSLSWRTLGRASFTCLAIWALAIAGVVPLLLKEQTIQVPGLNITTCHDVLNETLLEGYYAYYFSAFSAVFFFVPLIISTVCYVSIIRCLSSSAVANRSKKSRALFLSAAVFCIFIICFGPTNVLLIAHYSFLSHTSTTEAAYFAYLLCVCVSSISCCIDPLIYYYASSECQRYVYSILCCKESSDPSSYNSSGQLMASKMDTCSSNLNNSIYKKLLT
# Description: In FIG. 3C, the ability of the […] peptide (PR-TRAP) to induce a change in platelet shape was determined. Washed human platelets were pretreated with 2 mM EGTA and then treated with the indicated agonists in the presence or absence of 1 μM RWJ-56110 while stirring at 1100 rpm. The decrease in light transmittance is an indication of the platelet shape change reaction.
# In FIG. 4B, the ability of MMP-1 to induce platelet shape change was determined. Washed human platelets were pretreated with 2 mM EGTA and then challenged with MMP-1 in the presence or absence of 1 μM RWJ-56110 while stirring at 1100 rpm. Shape change was measured as described above.
# PAR1 [5] = target: T1, PAR1; assay: MMP-1-induced PAR1-dependent calcium flux in platelets; assay type: cell-based; settings: RWJ-56110
# Description: In FIG. 4C, the induction of PAR1-dependent calcium fluxes by MMP-1 was measured. Calcium flux measurements of gel filtered platelets following challenge with MMP-1 in the presence or absence of RWJ-56110 were performed at 25° C. with emission recorded at 510 nm and dual excitation at 340 and 380 nm as described (Kuliopulos. 1999).
# platelets [6] = assay: Clot retraction assay in human platelet-rich plasma, collagen initiated; assay type: cell-based; settings: 2.5-5 μg/ml collagen (titration 1-20 μg/ml); FN-439 5 μM, RWJ-56110 1 μM, MMP9/13 Inh 10 nM; 90 or 240 min
# Description: Platelet rich plasma (PRP) was isolated from human whole blood anti-coagulated with 4% sodium citrate. Clot retraction assays were done in 1 ml volumes containing 800 μl PBS and 200 μl PRP plus 10 μl red blood cells to enhance contrast. Samples were pretreated with FN-439 (5 μM), MMP9/13 Inh (10 nM) or RWJ-56110 (1 μM) for 15 min and clot formation was initiated with 1-20 μg/ml type I fibrillar collagen. Samples were incubated at 37° C. for 90 or 240 min and then photographed with a digital camera. Each photograph in FIG. 6I is representative of three independent experiments.
# MAPKAP-K2 = assay: Collagen activation of phospho-MAPKAP-K2 in platelets (data not shown); assay type: cell-based, human
# platelets [7] = assay: Collagen-dependent aggregation of gel-filtered human platelets (light transmittance); assay type: cell-based; settings: 5 μg/ml collagen; 1,10-PA 100 μM, MMP-200 200 nM, FN-439 3 μM, RWJ-56110 1 μM, PAR1 Ab 75 μg/ml, pepducins 3 μM, PPACK 200 μM, hirudin 1 U/ml
# Description: Platelet pellets and their supernatants were prepared as follows. […] following established informed consent procedures. […] Alternatively, whole blood was obtained from Hartley Sprague guinea pigs (drawn from the vena cava) into 3% citrate plus 10 U/ml heparin. Washed platelets from the guinea pigs were prepared in PIPES buffer. Platelet aggregation was measured with a Chronolog 560VS/490-2D aggregometer using modified PIPES buffer as a blank. Samples were incubated for 5 min in the presence of inhibitors and 1.8 mM CaCl2 prior to addition of agonist. All reactions were in final volumes of 250 μl at 37° C. while stirring at 900 rpm.
# The effect of pharmacologic blockage of metalloproteases or PAR1 on collagen-dependent platelet aggregation was then tested (see FIG. 5). Gel-filtered platelets from healthy individuals (supplemented with 0.3 mg/ml fibrinogen) were challenged with 5 μg/ml collagen in the presence or absence (0.2% DMSO vehicle) of the indicated inhibitors and allowed to stir at 900 rpm in an aggregometer cuvette (250 μL) at 37° C.
# In FIG. 5A, platelet aggregation was monitored by light transmittance.
# [8] = Carotid artery FeCl3 injury arterial thrombosis model; assay type: in vivo, guinea pig; settings: RWJ-56110 0.5 mg/kg; P1pal-7 0.13 mg/kg i.v.
# Excerpt: To assess the efficacy on arterial thrombosis by blockade of thrombin, MMP-1, or PAR1, a standard carotid artery FeCl3 injury model was used in guinea pigs. FeCl3 causes denudation of the artery and exposure of type I collagen and other subendothelial matrix proteins. The effects of blocking thrombin with bivalirudin, MMP-1 with FN-439, and PAR1 with either the small molecule antagonist RWJ-56110 or the P1pal-7 pepducin on arterial thrombosis were then compared using a dopier probe.
# For these arterial thrombosis experiments, 10 min after i.v. administration of vehicle (−), bivalirudin, RWJ-56110, P1 pal-7 or FN-439 (n=4-5) through the jugular vein at the indicated concentrations, the right carotid arteries were injured for 20 min using a 24 mm^2 piece of Bio-Rad Trans-Blot paper soaked in 20% FeCl3. Arterial flow 5 mm distal to the site of injury was measured with a 0.5 V Doppler probe (Transonic Systems). An arterial occlusion was defined as a flow rate of <0.01 V for ≧5 min. Doppler measurements were terminated at the 30 min time point following injury (* designates p<0.05).
# PAR1 [9] = target: T1, PAR1; assay: MMP-1-induced platelet aggregation; assay type: cell-based; settings: 1 μM RWJ-56110
# Description: In FIG. 4D, the induction of platelet aggregation by MMP-1 was determined. Gel-filtered platelets were challenged with MMP-1 in the presence or absence (0.2% DMSO vehicle) of the PAR1 inhibitor 1 μM RWJ-56110.
# PAR1 [10] = target: T1, PAR1; assay: PAR1-dependent RhoA activation (Rho-GTP) in platelets by tethered-ligand peptides; assay type: cell-based; settings: 1 μM RWJ-56110
# Description: Gel-filtered human platelets, supplemented with 0.3 mg/mL fibrinogen, were treated with 0.2% DMSO vehicle, or 30 μM SFLLRN (TRAP), PR-TRAP or reversed peptide (RP-TRAP), for 5 min at 37° C. in presence or absence of 1 μM RWJ-56110 as indicated. Platelets were lysed and Rho-GTP and total Rho was determined by Western analysis as described in the Experimental Procedures. Western bands were quantified by densitometry and results expressed relative to fold-increase from basal.
Compound,effect on size of platelet micro-thrombi on collagen surfaces (platelets [1]),effect on activation of phospho-p38 MAPK (p38 MAPK),attenuation of growth rate and size of platelet aggregate strings (platelets [2]),effect on activation of Rho-GTP (Rho-GTP),"block of collagen-induced release of PAR1 N-terminal peptide (PAR1 [3]; 5 μg/ml collagen, 10 min, 37° C., Ab 20 μg/ml, ARC 0.5 μM, ASA 1 mM)",block of PR-TRAP-induced platelet shape change (PAR1 [4]),inhibition of MMP-1-elicited platelet shape change (PAR1 [4]),inhibition of MMP-1-elicited calcium mobilization (PAR1 [5]),inhibition of clot formation and retraction (platelets [6]),block of collagen-activation of phospho-MAPKAP-K2 (MAPKAP-K2),inhibition (loss) of collagen-induced platelet aggregation (platelets [7]),effect on mean occlusion time [8],inhibition of MMP-1-elicited platelet aggregation (PAR1 [9]),block of signaling induced by PR-TRAP (PAR1 [10]),"block of thrombin-induced release of N-terminal cleavage peptide of PAR1 (PAR1 [3]; 3 nM thrombin, 0.00013 U hirudin)"
CC(=O)Oc1ccccc1C(=O)O [aspirin],did not affect,no effect,little or no effect,no effect,no effect,–,–,–,–,–,–,–,–,–,–
NCC[C@H](NC(=O)[C@H](Cc1ccc(F)c(F)c1)NC(=O)Nc1ccc2c(CN3CCCC3)cn(Cc3c(Cl)cccc3Cl)c2c1)C(=O)NCc1ccccc1 [RWJ-56110],–,–,~75%,–,–,completely blocked,inhibited,inhibited,nearly identical pattern of inhibition,blocked,50%,did not appreciably affect,inhibited,completely blocked,–
hirudin,no effect,–,–,–,–,–,–,–,–,–,no effect,–,–,–,blocked
